Results as given in PubChem BioAssay (NCI).
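Test compounds were applied to cells in 96-well plates for 48 hours at 5 doses. Here, GI50 denotes the concentration required for 50% inhibition of growth. At the TGI there is no net growth.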 Calls of active or inactive are those of the source. No stated cut-off is given here; in the data, active means GI50 below about 0.43 µM; inactive means the rest.

Assays:
Test in all cases: NCI-60 cell line screen, 48 h
UACC-257 melanoma = test system: UACC-257 melanoma
KM12 colon = test system: KM12 colon
SK-MEL-28 melanoma = test system: SK-MEL-28 melanoma
HL-60(TB) leukemia = test system: HL-60(TB) leukemia
HS 578T breast = test system: HS 578T breast
ACHN renal = test system: ACHN renal
TK-10 renal = test system: TK-10 renal

| SMILES | TGI (UACC-257 melanoma) | TGI (KM12 colon) | TGI (SK-MEL-28 melanoma) | TGI (HL-60(TB) leukemia) | TGI (HS 578T breast) | TGI (ACHN renal) | TGI (TK-10 renal) | other results |
| --- | --- | --- | --- | --- | --- | --- | --- | --- |
| O=NN1C(c2ccccc2)CCCC1c1ccccc1 (stereo not given) | > 100 µM | > 100 µM | > 100 µM | > 75.2 µM |  |  |  |  |
| COc1cc(/C(=C2/O[C@@H]([C@H]3COC(C)(C)O3)[C@H]3OC(C)(C)O[C@@H]23)c2ccc3c(c2)OCO3)cc(OC)c1OC | > 25 µM | > 25 µM | > 25 µM | > 25 µM | > 25 µM | > 25 µM | > 25 µM | GI50 (HS 578T breast): > 25 µM; GI50 (ACHN renal): 4.68 µM; GI50 (UACC-257 melanoma): > 25 µM; GI50 (KM12 colon): > 25 µM; GI50 (TK-10 renal): > 25 µM; GI50 (SK-MEL-28 melanoma): 16.1 µM; GI50 (HL-60(TB) leukemia): > 25 µM |
| CCOC(=O)C1=C(c2ccccc2)C12N(Cc1ccccc1)C(=O)C2(c1ccccc1)c1ccccc1 (stereo not given) | > 100 µM | > 100 µM | > 100 µM | > 100 µM | > 100 µM | > 100 µM | > 100 µM |  |
| O=P(O)(O)CN1CCNCCN(CP(=O)(O)O)CCN(CP(=O)(O)O)CCNCC1 |  |  |  | 55.8 µM |  |  |  | outcome (HS 578T breast): inactive; outcome (ACHN renal): inactive; outcome (UACC-257 melanoma): inactive; outcome (TK-10 renal): inactive; outcome (SK-MEL-28 melanoma): inactive; GI50 (HL-60(TB) leukemia): 48900 µM |
| COc1cc(-c2nc3cc(Cl)c(Cl)cc3[nH]2)ccc1OCC(=O)N=Nc1c(O)[nH]c2ccc(Cl)cc12 |  |  |  |  | 3.71 µM | > 100 µM | > 100 µM | GI50 (HS 578T breast): 1.04 µM; GI50 (ACHN renal): 1.69 µM; GI50 (TK-10 renal): 2.53 µM |
| C[N+]1([O-])[C@H]2CC(OC(=O)[C@H](CO)c3ccccc3)C[C@H]1[C@H]1O[C@H]12 (stereo not given in full) | > 100 µM | > 100 µM | > 100 µM |  | > 100 µM | > 100 µM | > 100 µM |  |
| O=Cc1c(Br)[nH]c2ccccc12 | 77.7 µM | > 100 µM | > 100 µM | > 100 µM |  |  |  |  |
| COc1ccc([C@H]2c3cc4c(cc3OC(O)(CO)[C@H]2C(=O)O)OCO4)c(OC)c1 (stereo not given in full) (tested in a mixture with another compound) | > 100 µM | > 100 µM | 95.8 µM | > 100 µM |  | > 100 µM | > 100 µM |  |
| Cc1cc2oc3c(ccc(=O)n3C)c(=O)c2c(C)c1Cl |  | > 100 µM | 73.1 µM | > 100 µM | 93 µM | > 100 µM | > 100 µM |  |
| CCCCOc1ccc2c(c1)CC[C@@H]1[C@@H]2CC[C@]2(C)C(=O)N(CCCC)C(=O)C[C@@H]12 |  | > 100 µM |  | > 100 µM | > 100 µM |  |  |  |
| O=C(c1ccccc1O)c1cc(-c2ncc3c(=O)c4ccccc4oc3n2)c(-c2ccccc2O)[nH]c1=O | 47.1 µM | > 80 µM | 65.3 µM | 53.2 µM |  |  |  |  |
| O=C(Nc1ccc(Sc2ccc(N=Nc3c(O)c(S(=O)(=O)O)cc4cc(S(=O)(=O)O)ccc34)cc2)cc1)c1ccc(N=Nc2c(O)c(S(=O)(=O)O)cc3cc(S(=O)(=O)O)ccc23)cc1 | > 100 µM | > 100 µM | 86.5 µM | 37.4 µM |  | > 100 µM | > 100 µM |  |
| NCCS(=O)(=O)O | > 100 µM | > 100 µM | > 100 µM | > 100 µM | > 100 µM | > 100 µM | > 100 µM |  |
